The results in this text go back to article PMC11315935, “Multi-layered heterochromatin interaction as a switch for DIM2-mediated DNA methylation” (Nature Communications, 2024).

Data set [1] relates to DIM2. The data set can be described thus: In vitro DNA methylation kinetics, substrate specificity of DIM2. In kind it is biochemical, Neurospora Crassa. Details: unit not given here. Particulars: Sup Fig. 1f, 0.25 µM DIM2, 1.0 µM DNA, 1.0 µM H3K9me3 peptide, 0.5 µM HP1, pH 8.0, 30 °C. Here is the method: (§1) In vitro DNA methylation assay was performed in a 20-µL reaction mixture. For the substrate specificity assay, the following DNA duplexes were used as substrates: CG DNA (Upper strand: 5’-[…]-3’), hemimethylated CG DNA (Upper strand: 5’-TAAATTTXGATTAATAAT-3’, X = 5-methylcytosine; Lower strand: 5’-[…] -3’), CHG DNA (Upper strand: 5’-[…]-3’), and CHH DNA (Upper strand: 5’-[…]-3’). The reaction mixture contains 0.25 µM DIM2, 1.0 µM DNA duplex, 1.0 µM synthesized H3K9me3 peptide (residues 1-24 of H3 plus a C-terminal tryptophan), 0.5 µM HP1, and 0.56 µM S-adenosyl-L-[methyl-^3H] methionine with a specific activity of 18 Ci/mmol (PerkinElmer) in buffer containing 50 mM Tris-HCl (pH 8.0), 100 mM NaCl, 0.05% β-mercaptoethanol, 5% glycerol, and 200 µg/mL BSA. For the rest of the DNA methylation assay, each reaction mixture contains 1.0 µM DIM2, 1.0 µM (CAT)12/(ATG)12 DNA duplex and 0.56 µM S-adenosyl-L-[methyl-^3H] methionine with a specific activity of 18 Ci/mmol (PerkinElmer) in buffer containing 50 mM Tris-HCl (pH 8.0), 100 mM NaCl, 0.05% β-mercaptoethanol, 5% glycerol, and 200 µg/mL BSA. In addition, 1.0 µM synthesized H3K9me3 or H3K9me0 peptide (residues 1-24 of H3 plus a C-terminal tryptophan) and/or 2 µM HP1 protein was included to evaluate the effect of H3 and HP1 regulation. The reaction mixture was incubated at 30 °C for 30 min, unless indicated otherwise, before being quenched by the addition of 5 µL of 10 mM cold SAM. After the reaction, 8 μL of the mixtures was loaded onto Hybond N nylon membrane (GE Healthcare), which was left to dry out at room temperature. The membrane was subsequently washed with 0.2 M ammonium bicarbonate (pH 8.2) two times (20 min per time), deionized water (20 min) once, and 95% ethanol (5 min) once. After air dried, the membrane carrying each sample was transferred into a vial containing 3 mL scintillation buffer (Fisher). The tritium scintillation was measured and recorded by a Beckman LS6500 counter. Each the reaction was repeated three times.

The test system of data set [2] is DIM2. As to the kind of experiment: In vitro DNA methylation assay: effect of HP1 and H3 peptides on DIM2 activity. In kind it is biochemical, Neurospora Crassa. Details: DNA methylation activity of DIM2 in presence of HP1, WT or W98A: unit not given beside the values. Particulars: for effect on DNA methylation activity of DIM2 (in words): 36-mer DNA duplex, 1.0 µM peptide and/or 2 µM HP1; for DNA methylation activity of DIM2 in presence of HP1, WT or W98A: Sup Fig. 1e, (CTA)12/(TAG)12 DNA duplex, 1.0 µM DIM2, 2 µM HP1, 30 °C, 30 min, pH 8.0. Here is the method:
as §1, with “1.0 µM (CAT)12/(ATG)12 DNA duplex and 0.56 µM S-adenosyl-L-[methyl-^3H]” left out

Setting [3] is: reaction time 0 min, replicate 1.
The mark [4] stands for this setting: reaction time 0 min, replicate 2.
[5] abbreviates: reaction time 0 min, replicate 3.
Where [6] appears, read: reaction time 15 min, replicate 1.
The mark [7] stands for this setting: reaction time 15 min, replicate 2.
[8] abbreviates: reaction time 15 min, replicate 3.
Where [9] appears, read: reaction time 30 min, replicate 1.
Setting [10] is: reaction time 30 min, replicate 2.
The mark [11] stands for this setting: reaction time 30 min, replicate 3.

Regarding “CG: CG DNA (Upper strand: 5’-ATTATTAATCGAAATTTA-3’) (DNA, backbone not given here; DNA duplex substrate for methylation assay)”, the DNA methylation kinetics in the data set with DIM2 [1] (setting [3]) stood at 0.019; in the data set on DIM2 [1] (setting [4]), 0.03; in the data set with DIM2 [1] (setting [5]), 0.038; in the data set on DIM2 [1] (setting [6]) it was 0.476; with DIM2 [1] (setting [7]), 0.828; with DIM2 [1] (setting [8]) it was 0.621. For the same substance, the DNA methylation kinetics in the data set with DIM2 [1] (setting [9]) was 1.426; in the data set with DIM2 [1] (setting [10]), 1.174; in the data set on DIM2 [1] (setting [11]) it was 1.115.

On to “CHG: CHG DNA (Upper strand: 5’-ATTATTAATCTGAATTTA-3’) (DNA, backbone not given here; DNA duplex substrate for methylation assay)”, for which the DNA methylation kinetics in the data set with DIM2 [1] (setting [3]) is given as 0.037; in the data set on DIM2 [1] (setting [4]) it was 0.044; in the data set with DIM2 [1] (setting [5]), 0.013; with DIM2 [1] (setting [6]) it was 1.24; with DIM2 [1] (setting [7]) it was 1.116; with DIM2 [1] (setting [8]), 1.338. Also, the DNA methylation kinetics is reported as 1.866 with DIM2 [1] (setting [9]), 1.872 in the data set with DIM2 [1] (setting [10]) and 1.906 in the data set on DIM2 [1] (setting [11]).

Take “CHH: CHH DNA (Upper strand: 5’-ATTATTAATCTAAATTTA-3’) (DNA, backbone not given here; DNA duplex substrate for methylation assay)”: the DNA methylation kinetics is 0.004 with DIM2 [1] (setting [3]); 0.003 in the data set on DIM2 [1] (setting [4]); 0.026 in the data set with DIM2 [1] (setting [5]); 0.184 with DIM2 [1] (setting [6]); 0.154 in the data set on DIM2 [1] (setting [7]); 0.169 in the data set with DIM2 [1] (setting [8]). In addition, the DNA methylation kinetics with DIM2 [1] (setting [9]) was found to be 0.346; in the data set on DIM2 [1] (setting [10]) it was 0.291; in the data set with DIM2 [1] (setting [11]) it was 0.235.

Take “H3_1-24K9me0: H3K9me0 peptide (residues 1-24 of H3 plus a C-terminal tryptophan), unmethylated H3 K9”: the “effect on DNA methylation activity of DIM2 (in words)” value in the data set with DIM2 [2] is “failed to synergize with HP1 to boost the DNA methylation activity of DIM2”.

Turning to “HP1WT: Neurospora Crassa HP1 (residues 1-266; Q1K612)”, the “effect on DNA methylation activity of DIM2 (in words)” value in the data set with DIM2 [2] is recorded as “slight but notable activity of DIM2”. Also, the entries for the “DNA methylation activity of DIM2 in presence of HP1, WT or W98A” value with DIM2 [2] (replicate 1), in the data set with DIM2 [2] (replicate 2) and in the data set with DIM2 [2] (replicate 3) were 22.922, 23.125 and 22.99, respectively.
